What was measured:
Assay type in all cases: physicochemical
[1] = Stability of calcitriol in ethanol (HPLC assay against a reference substance); conditions: for Measured concentration of calcitriol in % relative to T0: 30 ppm in absolute ethanol, 0.02% BHT
From the text: (§1) Calcitriol stability data were generated in various excipients, including ethanol 100, an ethanol 100 (75%)/cyclomethicone 5 (25%) mixture, or oils such as Miglyol 812 and Cetiol SN. • a) Stability of Calcitriol in Ethanol: Solution of 30 ppm of calcitriol in qsp 100% of absolute ethanol, in the presence of 0.02% of BHT. Technique of HPLC assay against a reference substance. At the starting time (T0) the composition is considered to comprise 100% of calcitriol. Measured concentration of calcitriol in % relative to T0: […]

[2] = Stability of calcitriol in Cetiol SN (cetearyl isononanoate) (HPLC assay); conditions: for Measured concentration of calcitriol in % relative to T0: 30 ppm in Cetiol SN, 0.4% BHT
From the text: as §1, with “Ethanol: d) Stability of Calcitriol in Cetiol SN (Cetearyl Isononanoate):” for “Ethanol:”, “Cetiol SN (cetearyl isononanoate),” for “absolute ethanol,”, “0.4%” for “0.02%”

[3] = Stability of calcitriol in ethanol/cyclopentasiloxane (HPLC assay against a reference substance); conditions: for Measured concentration of calcitriol in % relative to T0: 30 ppm in 75% absolute ethanol + 25% cyclopentasiloxane, 0.02% BHT
From the text: as §1, with “Ethanol: b) Stability of Calcitriol in Ethanol/Cyclopentasiloxane:” for “Ethanol:”, “qsp 75%” for “qsp 100%”, “absolute ethanol+25% of cyclopentasiloxane,” for “absolute ethanol,”

[4] = Stability of calcitriol in Miglyol 812 (caprylic/capric triglycerides) (HPLC assay); conditions: for Measured concentration of calcitriol in % relative to T0: 30 ppm in Miglyol 812, 0.4% BHT
From the text: as §1, with “Ethanol: c) Stability of Calcitriol in Miglyol 812 (Caprylic/Capric Triglycerides):” for “Ethanol:”, “Miglyol 812,” for “absolute ethanol,”, “0.4%” for “0.02%”

## C=C1/C(=C\C=C2/CCC[C@]3(C)[C@@H]([C@H](C)CCCC(C)(C)O)CC[C@@H]23)C[C@@H](O)C[C@@H]1O [calcitriol]
[1]; +4° C., T 1 week
  Measured concentration of calcitriol in % relative to T0: 97.7%
[1]; +4° C., T 2 weeks
  Measured concentration of calcitriol in % relative to T0: 98.6%
[1]; +4° C., T 3 weeks
  Measured concentration of calcitriol in % relative to T0: 98.1%
[1]; +4° C., T 4 weeks
  Measured concentration of calcitriol in % relative to T0: 97.7%
[1]; +30° C., T 2 weeks
  Measured concentration of calcitriol in % relative to T0: 93.4%
[1]; +30° C., T 4 weeks
  Measured concentration of calcitriol in % relative to T0: 93.0%
[1]; −18° C., T 1 week
  Measured concentration of calcitriol in % relative to T0: 100.9%
[1]; −18° C., T 2 weeks
  Measured concentration of calcitriol in % relative to T0: 100.5%
[1]; −18° C., T 3 weeks
  Measured concentration of calcitriol in % relative to T0: 99.5%
[1]; −18° C., T 4 weeks
  Measured concentration of calcitriol in % relative to T0: 99.5%
[1]; in ethanol
  Stability of calcitriol (in words): good stability
[2]; +4° C., T 2 weeks
  Measured concentration of calcitriol in % relative to T0: 98.6%
[2]; +4° C., T 4 weeks
  Measured concentration of calcitriol in % relative to T0: 98.1%
[2]; +40° C., T 2 weeks
  Measured concentration of calcitriol in % relative to T0: 99.0%
[2]; +40° C., T 4 weeks
  Measured concentration of calcitriol in % relative to T0: 98.9%
[2]; RT, T 2 weeks
  Measured concentration of calcitriol in % relative to T0: 98.7%
[2]; RT, T 4 weeks
  Measured concentration of calcitriol in % relative to T0: 98.4%
[2]; in Cetiol SN
  Stability of calcitriol (in words): good stability
[3]; +4° C., T 2 weeks
  Measured concentration of calcitriol in % relative to T0: 99.2%
[3]; +4° C., T 3 weeks
  Measured concentration of calcitriol in % relative to T0: 99.6%
[3]; +4° C., T 4 weeks
  Measured concentration of calcitriol in % relative to T0: 97.5%
[3]; +30° C., T 2 weeks
  Measured concentration of calcitriol in % relative to T0: 93.8%
[3]; +30° C., T 4 weeks
  Measured concentration of calcitriol in % relative to T0: 93.3%
[3]; −18° C., T 2 weeks
  Measured concentration of calcitriol in % relative to T0: 100.4%
[3]; −18° C., T 3 weeks
  Measured concentration of calcitriol in % relative to T0: 101.3%
[3]; −18° C., T 4 weeks
  Measured concentration of calcitriol in % relative to T0: 99.2%
[3]; in an ethanol/cyclopentasiloxane mixture
  Stability of calcitriol (in words): good stability
[4]; +4° C., T 2 weeks
  Measured concentration of calcitriol in % relative to T0: 98.3%
[4]; +4° C., T 4 weeks
  Measured concentration of calcitriol in % relative to T0: 105.2%
[4]; +40° C., T 2 weeks
  Measured concentration of calcitriol in % relative to T0: 91%
[4]; +40° C., T 4 weeks
  Measured concentration of calcitriol in % relative to T0: 93.8%
[4]; RT, T 2 weeks
  Measured concentration of calcitriol in % relative to T0: 95.1%
[4]; RT, T 4 weeks
  Measured concentration of calcitriol in % relative to T0: 98.0%
[4]; in Miglyol 812
  Stability of calcitriol (in words): good stability
